Patent EP2951180B1, “2,6,7,8 SUBSTITUTED PURINES AS HDM2 INHIBITORS” (Merck Sharp & Dohme Corp., priority 2013, dated 2014)
Read-outs that look alike come from different tables or passages of the source.

Biological target: T1, HDM2 (Homo sapiens, UniProt Q00987)
T1 construct: Thioredoxin (N); made in house; host or cells: E. coli strain BL21(DE3)Rosetta
Test: HDM2 FRET assay (inhibition of binding of FITC labeled p53-pocket peptide to HDM2)
Conditions: read-out: FRET IC50
In short: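 Final: 0.5 nM His-HDM2, 3 nM FITC peptide, 0.25 nM Tb anti-His Ab; PBS, 0.01% BSA, 0.01% Tween-20; 0.1% DMSO.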

T1 sequence (Q00987 17-125): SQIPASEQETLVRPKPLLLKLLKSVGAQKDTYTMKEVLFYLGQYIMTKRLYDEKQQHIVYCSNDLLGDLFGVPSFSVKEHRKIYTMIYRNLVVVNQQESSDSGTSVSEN

Row | Structure (SMILES) | IC50 (Table 9) | further results
1 | CNC(=O)CC[C@@H](Nc1nc(C(=O)O)nc2nc(-c3cccc(C)c3)n(Cc3ccc(C(F)(F)F)cc3)c12)C1CCC1 [Example 7.13, 6-{[(1R)-1-cyclobutyl-4-(methylamino)-4-oxobutyl]amino}-8-(3-methylphenyl)-7-[4-(trifluoromethyl)benzyl]-7H-purine-2-carboxylic acid] |  | IC50 (Table 7): 102 nM
2 | Cc1cccc(-c2nc3nc(C(=O)O)nc(N[C@H](CC(O)CO)C4CCC4)c3n2Cc2ccc(C(F)(F)F)cc2)c1 (stereo partly drawn) [Example 7.15, 6-{[(1R)-1-cyclobutyl-3,4-dihydroxybutyl]amino}-8-(3-methylphenyl)-7-[4-(trifluoromethyl)benzyl]-7H-purine-2-carboxylic acid] |  | IC50 (Table 7): 26.5 nM
3 | CC(C)c1ccnc(-c2nc3nc(C(=O)O)nc(N[C@H](c4ccccc4)C4CCC4)c3n2Cc2ccc(C(F)(F)F)cc2)c1 [Example 7.16, 6-{[(S)-cyclobutyl(phenyl)methyl]amino}-8-[4-(1-methylethyl)pyridin-2-yl]-7-[4-(trifluoromethyl)benzyl]-7H-purine-2-carboxylic acid] |  | IC50 (Table 7): 40.6 nM
4 | COc1ccc(C)cc1-c1nc2nc(C(=O)O)nc(N[C@H](C)C3CC(F)(F)C3)c2n1Cc1ccc(C(F)(F)F)cc1 [Example 7.17, 6-{[(1R)-1-(3,3-difluorocyclobutyl)ethyl]amino}-8-(2-methoxy-5-methylphenyl)-7-[4-(trifluoromethyl)benzyl]-7H-purine-2-carboxylic acid] |  | IC50 (Table 7): 58.9 nM
5 | COc1ccc(C)cc1-c1nc2nc(C(=O)O)nc(NC(C)C3CC(C)C3)c2n1Cc1ccc(C(F)(F)F)cc1 (centres unmarked) [Example 7.18, 8-(2-methoxy-5-methylphenyl)-6-{[1-(3-methylcyclobutyl)ethyl]amino}-7-[4-(trifluoromethyl)benzyl]-7H-purine-2-carboxylic acid] |  | IC50 (Table 7): 162 nM
6 | COc1ccc(C)cc1-c1nc2nc(C(=O)O)nc(N[C@H](C)C3CC3(F)F)c2n1Cc1ccc(C(F)(F)F)cc1 (stereo partly drawn) [Example 7.19, 6-{[(1R)-1-(2,2-difluorocyclopropyl)ethyl]amino}-8-(2-methoxy-5-methylphenyl)-7-[4-(trifluoromethyl)benzyl]-7H-purine-2-carboxylic acid] |  | IC50 (Table 7): 772 nM
7 | CC(C)c1ccnc(-c2nc3nc(C(=O)O)nc(N[C@H](C)C4CCC4)c3n2Cc2ccc(C(F)(F)F)cc2N)c1 [Example 8.1, 7-[2-amino-4-(trifluoromethyl)benzyl]-6-{[(1R)-1-cyclobutylethyl]amino}-8-[4-(propan-2-yl)pyridin-2-yl]-7H-purine-2-carboxylic acid] |  | IC50 (Table 8): 1.62 nM
8 | C[C@H](Nc1nc2nc(C(=O)O)nc(N[C@H](C)C3CCC3)c2n1Cc1ccc(C(F)(F)F)cc1)c1ccc(F)cc1 [Example 9.1, 6-{[(1R)-1-cyclobutylethyl]amino}-8-{[(1S)-1-(4-fluorophenyl)ethyl]amino}-7-[4-(trifluoromethyl)benzyl]-7H-purine-2-carboxylic acid] | 1.81 nM | 
9 | C[C@@H](Nc1nc(C(=O)O)nc2nc(N(C)c3ccccc3)n(Cc3ccc(C(F)(F)F)cc3)c12)C1CCC1 [Example 9.2, 6-{[(1R)-1-cyclobutylethyl]amino}-8-[methyl(phenyl)amino]-7-[4-(trifluoromethyl)benzyl]-7H-purine-2-carboxylic acid] | 20.7 nM | 
10 | C[C@@H](Nc1nc(C(=O)O)nc2nc(N3CCCCC3Cc3ccccc3)n(Cc3ccc(C(F)(F)F)cc3)c12)C1CCC1 (stereo partly drawn) [Example 9.3, 8-(2-benzylpiperidin-1-yl)-6-{[(1R)-1-cyclobutylethyl]amino}-7-[4-(trifluoromethyl)benzyl]-7H-purine-2-carboxylic acid] | 14.5 nM | 
11 | C[C@@H](Nc1nc(-c2noc(=O)[nH]2)nc2nc(N3CCOC[C@H]3c3ccccc3)n(Cc3ccc(Cl)c(F)c3)c12)C1CCC1 [Example 9.4, 3-{7-(4-chloro-3-fluorobenzyl)-6-{[(1R)-1-cyclobutylethyl]amino}-8-[(3R)-3-phenylmorpholin-4-yl]-7H-purin-2-yl}-1,2,4-oxadiazol-5(4H)-one] | 0.848 nM | 
12 | C[C@@H](Nc1nc(C(=O)O)nc2nc(N3CCN(C)CC3)n(Cc3ccc(C(F)(F)F)cc3)c12)C1CC1 [Example 9.5, 6-{[(1R)-1-cyclopropylethyl]amino}-8-(4-methylpiperazin-1-yl)-7-[4-(trifluoromethyl)benzyl]-7H-purine-2-carboxylic acid] | 2350 nM | 
13 | C[C@@H](Nc1nc(C(=O)O)nc2nc(N[C@@H](CO)c3ccccc3)n(Cc3ccc(C(F)(F)F)cc3)c12)C1CCC1 [Example 9.6, 6-{[(1R)-1-cyclobutylethyl]amino}-8-{[(1R)-2-hydroxy-1-phenylethyl]amino}-7-[4-(trifluoromethyl)benzyl]-7H-purine-2-carboxylic acid] | 1.47 nM | 
14 | C[C@H](CO)Nc1nc2nc(C(=O)O)nc(N[C@H](C)C3CCC3)c2n1Cc1ccc(C(F)(F)F)cc1 [Example 9.7, 6-{[(1R)-1-cyclobutylethyl]amino}-8-{[(1R)-2-hydroxy-1-methylethyl]amino}-7-[4-(trifluoromethyl)benzyl]-7H-purine-2-carboxylic acid] | 35.8 nM | 
15 | C[C@@H](Nc1nc(C(=O)O)nc2nc(N[C@H](CO)c3ccccc3)n(Cc3ccc(C(F)(F)F)cc3)c12)C1CCC1 [Example 9.8, 6-{[(1R)-1-cyclobutylethyl]amino}-8-{[(1S)-2-hydroxy-1-phenylethyl]amino}-7-[4-(trifluoromethyl)benzyl]-7H-purine-2-carboxylic acid] | 15.2 nM | 
16 | C[C@@H](Nc1nc(C(=O)O)nc2nc(N3CCOCC3)n(Cc3ccc(Cl)cc3)c12)C1CC1 [Example 9.9, 7-(4-chlorobenzyl)-6-{[(1R)-1-cyclopropylethyl]amino}-8-morpholin-4-yl-7H-purine-2-carboxylic acid] | 574 nM | 
17 | C[C@@H](CO)Nc1nc2nc(C(=O)O)nc(N[C@H](C)C3CCC3)c2n1Cc1ccc(C(F)(F)F)cc1 [Example 9.10, 6-{[(1R)-1-cyclobutylethyl]amino}-8-{[(1S)-2-hydroxy-1-methylethyl]amino}-7-[4-(trifluoromethyl)benzyl]-7H-purine-2-carboxylic acid] | 85.9 nM | 
18 | C[C@@H](Nc1nc(C(=O)O)nc2nc(N3CCCCC3)n(Cc3ccc(C(F)(F)F)cc3)c12)C1CCC1 [Example 9.11, 6-{[(1R)-1-cyclobutylethyl]amino}-8-piperidin-1-yl-7-[4-(trifluoromethyl)benzyl]-7H-purine-2-carboxylic acid] | 17.6 nM | 
19 | C[C@@H](Nc1nc(C(=O)O)nc2nc(NC3CCCCC3)n(Cc3ccc(C(F)(F)F)cc3)c12)C1CCC1 [Example 9.12, 6-{[(1R)-1-cyclobutylethyl]amino}-8-(cyclohexylamino)-7-[4-(trifluoromethyl)benzyl]-7H-purine-2-carboxylic acid] | 7.65 nM | 
20 | C[C@@H](Nc1nc(C(=O)O)nc2nc(NCc3ccccc3)n(Cc3ccc(C(F)(F)F)cc3)c12)C1CCC1 [Example 9.13, 8-(benzylamino)-6-{[(1R)-1-cyclobutylethyl]amino}-7-[4-(trifluoromethyl)benzyl]-7H-purine-2-carboxylic acid] | 3.07 nM | 
21 | C[C@@H](Nc1nc(C(=O)O)nc2nc(N(C)Cc3ccccc3)n(Cc3ccc(C(F)(F)F)cc3)c12)C1CCC1 [Example 9.14, 8-[benzyl(methyl)amino]-6-{[(1R)-1-cyclobutylethyl]amino}-7-[4-(trifluoromethyl)benzyl]-7H-purine-2-carboxylic acid] | 5.62 nM | 
22 | C[C@@H](Nc1nc(C(=O)O)nc2nc(N(C)C3CCCCC3)n(Cc3ccc(C(F)(F)F)cc3)c12)C1CCC1 [Example 9.15, 6-{[(1R)-1-cyclobutylethyl]amino}-8-[cyclohexyl(methyl)amino]-7-[4-(trifluoromethyl)benzyl]-7H-purine-2-carboxylic acid] | 7.4 nM | 
23 | C[C@H](Nc1nc2nc(C(=O)O)nc(N[C@H](C)C3CCC3)c2n1Cc1ccc(C(F)(F)F)cc1)c1ccccc1 [Example 9.16, 6-{[(1R)-1-cyclobutylethyl]amino}-8-{[(1S)-1-phenylethyl]amino}-7-[4-(trifluoromethyl)benzyl]-7H-purine-2-carboxylic acid] | 1.91 nM | 
24 | C[C@@H](Nc1nc2nc(C(=O)O)nc(N[C@H](C)C3CCC3)c2n1Cc1ccc(C(F)(F)F)cc1)c1ccccc1 [Example 9.17] | 15.8 nM | 
25 | C[C@@H](Nc1nc(C(=O)O)nc2nc(N3CCOC(C)(C)C3)n(Cc3ccc(C(F)(F)F)cc3)c12)C1CCC1 [Example 9.18, 6-{[(1R)-1-cyclobutylethyl]amino}-8-(2,2-dimethylmorpholin-4-yl)-7-[4-(trifluoromethyl)benzyl]-7H-purine-2-carboxylic acid] | 32.7 nM | 
26 | C[C@@H](Nc1nc(C(=O)O)nc2nc(N3CC(C)(C)OC(C)(C)C3)n(Cc3ccc(C(F)(F)F)cc3)c12)C1CCC1 [Example 9.19, 6-{[(1R)-1-cyclobutylethyl]amino}-8-(2,2,6,6-tetramethylmorpholin-4-yl)-7-[4-(trifluoromethyl)benzyl]-7H-purine-2-carboxylic acid] | 12.4 nM | 
27 | CC1CN(c2nc3nc(C(=O)O)nc(N[C@H](C)C4CCC4)c3n2Cc2ccc(C(F)(F)F)cc2)CCO1 (stereo partly drawn) [Example 9.20, 6-{[(1R)-1-cyclobutylethyl]amino}-8-(2-methylmorpholin-4-yl)-7-[4-(trifluoromethyl)benzyl]-7H-purine-2-carboxylic acid] | 63.1 nM | 
28 | C[C@@H](Nc1nc(C(=O)O)nc2nc(Nc3ccccc3)n(Cc3ccc(C(F)(F)F)cc3)c12)C1CCC1 [Example 9.21, 6-{[(1R)-1-cyclobutylethyl]amino} -8-(phenylamino)-7-[4-(trifluoromethyl)benzyl]-7H-purine-2-carboxylic acid] | 9.44 nM | 
29 | C[C@@H](Nc1nc(C(=O)O)nc2nc(N3CCOC(c4ccccc4)C3)n(Cc3ccc(C(F)(F)F)cc3)c12)C1CCC1 (stereo partly drawn) [Example 9.22, 6-{[(1R)-1-cyclobutylethyl]amino}-8-(2-phenylmorpholin-4-yl)-7-[4-(trifluoromethyl)benzyl]-7H-purine-2-carboxylic acid] | 12.4 nM | 
